From PubChem BioAssay (NCI)
“And” between values parts separate entries of the source, which are not always exact repeats. Equal entries are not always repeated.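 Compound exposure: 48 hours, 5 concentrations, 96-well plates. Abbreviation: GI50, concentration required for 50% inhibition of growth. The concentration for full growth arrest is given as TGI.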

Columns and labels:
Test in all cases: DTP human tumour cell line panel, 48 h
[1] = system: A498 renal
[2] = system: CAKI-1 renal
[3] = system: COLO 205 colon
[4] = system: EKVX NSCLC
[5] = system: HOP-62 NSCLC
[6] = system: MDA-MB-231 breast
[7] = system: NCI/ADR-RES ovarian
[8] = system: SF-295 CNS
[9] = system: SK-MEL-2 melanoma
[10] = system: U251 CNS

Row | Structure (SMILES) | GI50 [1] | TGI [1] | GI50 [2] | TGI [2] | GI50 [3] [µM] | TGI [3] | GI50 [4] | TGI [4] | GI50 [5] | TGI [5] | GI50 [6] [µM] | TGI [6] | GI50 [7] | TGI [7] | GI50 [8] | TGI [8] | GI50 [9] [µM] | TGI [9] | GI50 [10] | TGI [10]
1 | C[C@@]1(C(=O)O)CCC[C@]2(C)C1CC[C@]13C[C@@](O)(CO)[C@](O)(CC[C@]12O)C3 (stereo partly drawn) | 75.1 µM | > 100 µM | > 100 µM | > 100 µM | > 100 | > 100 µM | > 100 µM | > 100 µM | > 100 µM | > 100 µM | > 100 | > 100 µM | > 100 µM | > 100 µM | > 100 µM | > 100 µM | > 100 | > 100 µM | > 100 µM | > 100 µM
2 | COc1c(-c2ccc3c(c2)OCO3)oc2cc(O)cc(O)c2c1=O | – | 72.3 µM | – | 86.4 µM | – | > 100 µM | – | > 100 µM | – | 55.5 µM | – | > 100 µM | – | > 100 µM | – | > 100 µM | – | > 100 µM | – | > 100 µM
3 | O=C(NCCCl)Nc1ccccc1 | – | > 100 µM | – | > 100 µM | – | > 100 µM | – | > 100 µM | – | > 100 µM | – | > 100 µM | – | > 100 µM | – | > 100 µM | – | > 100 µM | – | > 100 µM
4 | CCN(CC)S(=O)(=O)c1cccc(-c2ccc3c(NC(=O)C4CC4)n[nH]c3c2)c1 | 1.61 µM | > 6.25 µM | 2.28 µM | > 6.25 µM | 1.71 | > 6.25 µM | 2.19 µM | > 6.25 µM | 2.54 µM | > 6.25 µM | 2.84 | > 6.25 µM | > 6.25 µM | > 6.25 µM | 1.66 µM | > 6.25 µM | 1.85 | > 6.25 µM | 2.1 µM | > 6.25 µM
5 | C(=C\c1ccncc1)/c1ccncc1 | 10 µM | > 100 µM | > 100 µM | > 100 µM | > 100 | > 100 µM | > 100 µM | > 100 µM | > 100 µM | > 100 µM | > 100 | > 100 µM | > 100 µM | > 100 µM | > 100 µM | > 100 µM | > 100 | > 100 µM | > 100 µM | > 100 µM
6 | Cc1ccc(-c2c3c(nn2-c2ccc(S(=O)(=O)NC(=O)NC4CCCCC4)cc2)-c2ccccc2C3)cc1 | – | 20 µM | 18 µM | 41.8 µM | 12.1 | 30.4 µM | 11.8 µM | 25.4 µM | 18.8 µM | 38.2 µM | 21 | 43.2 µM | 16 µM | 54.5 µM | 18.7 µM | 48.7 µM | 16.8 | 32 µM | 12.3 µM | 26.9 µM
7 | CC(C)(C)C(=O)c1c(C(F)(F)F)n([O-])c2cc(Cl)c(Cl)cc2[n+]1=O | 1.33 µM | 2.6 µM | 0.248 µM | 0.639 µM | 0.683 | 1.69 µM | 1.91 µM | 3.4 µM | 1.53 µM | 2.89 µM | 1.44 | 2.9 µM | 0.567 µM | 1.37 µM | 0.505 µM | 0.973 µM | 0.903 | 2.28 µM | 0.492 µM | 0.951 µM
8 | CN(C)CC1C(=O)O[C@H]2[C@H]1CC/C(COC(=O)NCc1ccc(Cn3c(=O)sn(CCCI)c3=O)cc1)=C\CC[C@@]1(C)O[C@@H]21 (stereo partly drawn) | 7.02 µM | 13.6 µM | 0.886 µM | 1.95 µM | 0.833 | 1.66 µM | 3.19 µM | 10.3 µM | 4.23 µM | 12.7 µM | 0.906 | 1.8 µM | 10.2 µM | 30.1 µM | 7.43 µM | 14.5 µM | 6.31 | 13.8 µM | 7.53 µM | 14.3 µM
9 | O=C(CSC(c1ccccc1)c1ccccc1)N/N=C/c1ccccc1Cl | 7.2 µM | 59.9 µM | 37.7 µM | > 100 µM | > 71.8 | > 100 µM | 2.75 µM | > 34.1 µM | 22.7 µM | > 76.8 µM | 1.46 | 11.5 µM | 13.6 µM | > 74.6 µM | 15.9 µM | > 68.4 µM | > 62.5 | > 100 µM | 25.8 µM | > 58.4 µM
10 | CC(C)c1[nH]nc2c(NCc3ccc(-c4ccccn4)cc3)nc(SCCN)nc12 | 0.0306 µM and 0.0302 µM | 0.0826 µM and 0.0876 µM | 2.47 µM and 2.84 µM | 14.8 µM | – | 0.0342 µM | 0.0328 µM and 0.0557 µM | 1.52 µM and 2.62 µM | 0.0247 µM and 0.0206 µM | 0.604 µM and 0.187 µM | 0.00492 | 0.205 µM and 0.212 µM | 4.87 µM and 3.56 µM | 21.3 µM | 0.0391 µM and 0.0425 µM | 0.712 µM and 2.03 µM | 0.0306 | 0.105 µM | 0.028 µM and 0.0205 µM | 11.5 µM
11 | COC(=O)c1c2c(c(C)[n+]([O-])c1C)C(=O)C(NCc1ccc(F)cc1)=CC2=O | 1.57 µM | 3.29 µM | 2.06 µM | 6 µM | 0.376 | 1.36 µM | 1.66 µM | 4.14 µM | 2.4 µM | 22.5 µM | 1.46 | 4.36 µM | 1.68 µM | 5.53 µM | 1.42 µM | 3 µM | 1.75 | 4.03 µM | 1.81 µM | 5.14 µM
12 | Oc1ccc(Cl)cc1Sc1cc(Cl)ccc1O | 2.73 µM | 24.2 µM and 7.72 µM | 6.82 µM | 34.8 µM and 29.6 µM | 5.93 | 39.9 µM and 20.2 µM | 2.58 µM | 33 µM and 8.19 µM | 3.04 µM | 32.9 µM and 12 µM | 2.72 | 31.7 µM and 7.71 µM | 2.48 µM | 57.8 µM and 7.47 µM | 2.37 µM | 30.9 µM and 6.43 µM | 2.17 | 24.2 µM and 5.56 µM | 3.31 µM | 22.1 µM and 12.2 µM
13 | C=C1C(=O)O[C@@H]2CC(CO)=C([C@@H](C)CCCO)[C@@H](OC(=O)/C(C)=C\C)[C@H]12 | – | > 74.1 µM | – | 63.4 µM | – | 28.7 µM | – | 48.2 µM | – | > 100 µM | – | 57.2 µM | – | 75.4 µM | – | > 100 µM | – | 70.5 µM | – | 37.6 µM
